target: Tyrosine-protein kinase SYK (Homo sapiens, UniProt P43405); test: Syk Kinase Inhibition Assay: The in vitro inhibitory activity of the compound of the present invention against Syk kinase activity was assayed under the following conditions: the purified human Syk protein used in the test were purchased from Carna Biosciences, Inc. For the inhibitory activity assay on the compound, the compound of the present invention was first serially diluted with dimethyl …
Description: Syk Kinase Inhibition Assay: The in vitro inhibitory activity of the compound of the present invention against Syk kinase activity was assayed under the following conditions: the purified human Syk protein used in the test were purchased from Carna Biosciences, Inc. For the inhibitory activity assay on the compound, the compound of the present invention was first serially diluted with dimethyl sulfoxide (DMSO). […] The kinase reaction was stopped by the addition thereto of EDTA.

IC50 [nM]	Compound
0.37	Cc1cc(Nc2nc(N[C@@H]3CCOC[C@@H]3N)nnc2C(N)=O)cc2ccsc12
0.38	NC(=O)c1nnc(N[C@@H]2CCCC[C@@H]2N)nc1Nc1nc(-c2ccccc2)cs1

Compound	IC50 [nM]
NC(=O)c1nnc(N[C@@H]2CCOC[C@@H]2N)nc1Nc1csc2ccccc12	0.89
